From US20240033263A1, “COMBINATION OF ALDOSE REDUCTASE INHIBITORS AND PROBENECID FOR THE TREATMENT OF DIABETIC COMPLICATIONS” (priority 2021, published 2024)
Like-named read-outs stand apart in the source and are kept apart here.

Key:
[1] = ARI i.v. with probenecid i.p., Sprague-Dawley rats; cited from earlier work
[2] = animal model, cited from earlier work
[3] = target: T1, TRPV2 (Mus musculus, UniProt Q9WTR1); conditions: cited from earlier work
T1 construct: TRPV2 is expressed in the murine heart; host or cells: murine heart (in vitro and in vivo)
T1 sequence (Q9WTR1 1-756): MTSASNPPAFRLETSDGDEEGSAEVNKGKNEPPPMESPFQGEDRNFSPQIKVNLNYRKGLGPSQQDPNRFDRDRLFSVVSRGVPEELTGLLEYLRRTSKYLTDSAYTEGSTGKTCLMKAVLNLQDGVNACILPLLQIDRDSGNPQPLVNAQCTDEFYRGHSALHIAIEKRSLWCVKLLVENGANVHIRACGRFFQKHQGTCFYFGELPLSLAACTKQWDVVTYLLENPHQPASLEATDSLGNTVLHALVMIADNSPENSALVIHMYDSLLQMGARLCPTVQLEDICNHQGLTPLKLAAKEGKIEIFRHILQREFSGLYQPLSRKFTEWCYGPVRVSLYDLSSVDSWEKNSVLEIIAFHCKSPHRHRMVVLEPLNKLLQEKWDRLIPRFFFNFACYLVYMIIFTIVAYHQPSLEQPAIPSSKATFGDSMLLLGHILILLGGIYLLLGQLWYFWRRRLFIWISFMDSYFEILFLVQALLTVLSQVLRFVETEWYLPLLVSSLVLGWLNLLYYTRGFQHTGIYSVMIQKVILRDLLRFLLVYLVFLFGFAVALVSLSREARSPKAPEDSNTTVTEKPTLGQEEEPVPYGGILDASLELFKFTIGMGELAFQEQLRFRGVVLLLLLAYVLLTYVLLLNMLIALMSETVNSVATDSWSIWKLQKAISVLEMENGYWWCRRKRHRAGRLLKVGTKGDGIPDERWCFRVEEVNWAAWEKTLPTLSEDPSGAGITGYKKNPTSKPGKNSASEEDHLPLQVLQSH

[4] = non-diabetic patients with heart failure with reduced ejection fraction; cited from earlier work
[5] = mouse model of peripartum cardiomyopathy; cited from earlier work
[6] = target: T2, transient receptor potential vanilloid 2 (TRPV2) channel (Homo sapiens, UniProt Q9Y5S1); conditions: cited from earlier work
T2 sequence (Q9Y5S1 1-764): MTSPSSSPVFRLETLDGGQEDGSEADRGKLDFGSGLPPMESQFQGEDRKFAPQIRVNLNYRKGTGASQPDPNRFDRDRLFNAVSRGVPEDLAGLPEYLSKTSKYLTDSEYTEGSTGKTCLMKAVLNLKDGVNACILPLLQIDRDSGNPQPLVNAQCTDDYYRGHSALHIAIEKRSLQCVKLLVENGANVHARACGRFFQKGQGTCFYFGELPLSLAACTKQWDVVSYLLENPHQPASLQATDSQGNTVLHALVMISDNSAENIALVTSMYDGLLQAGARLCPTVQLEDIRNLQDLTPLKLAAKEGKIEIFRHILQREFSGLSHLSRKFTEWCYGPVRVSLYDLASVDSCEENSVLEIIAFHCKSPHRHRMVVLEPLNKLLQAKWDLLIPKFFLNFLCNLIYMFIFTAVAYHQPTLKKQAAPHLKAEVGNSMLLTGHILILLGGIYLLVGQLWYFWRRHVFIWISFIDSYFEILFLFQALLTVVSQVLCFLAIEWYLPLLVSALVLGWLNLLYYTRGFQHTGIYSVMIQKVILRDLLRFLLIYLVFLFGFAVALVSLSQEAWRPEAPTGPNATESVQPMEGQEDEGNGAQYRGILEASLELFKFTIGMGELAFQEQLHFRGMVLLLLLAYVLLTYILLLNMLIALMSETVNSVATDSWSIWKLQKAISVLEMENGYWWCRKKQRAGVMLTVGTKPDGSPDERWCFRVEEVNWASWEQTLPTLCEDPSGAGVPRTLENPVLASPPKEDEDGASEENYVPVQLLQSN

[7] = humans; cited from earlier work
[8] = water; cited from earlier work
[9] = cited from earlier work
[10] = humans, oral route; cited from earlier work
[11] = design: species or system humans; conditions: in vivo
Description: AT-001 is in clinical development by Applied Therapeutics for treatment of diabetic cardiomyopathy (American Heart Association 2019 Abstract Mo-2278). […] So, AT-001 would be between approximately 7-12 times shorter lived in human plasma compared to the reported human plasma half-life of zopolrestat (vide infra).

[12] = humans, oral, SAD and MAD studies; cited from earlier work

O=C(O)CNS(=O)(=O)c1ccc(NC(=O)c2ccccc2)cc1 [N-[4-(benzoylaminophenyl)sulfonyl]glycine]
plasma profiles and pharmacokinetic parameters (AUC, clearance, mean residence time, volume of distribution) [1]: did not alter

CCCN(CCC)S(=O)(=O)c1ccc(C(=O)O)cc1 [probenecid, 4-(dipropylsulfamoyl)benzoic acid]
apoptotic or arrhythmic pathways [2]: does not elicit
myocardial contractility ([2]; via increased calcium cycling on a beat-to-beat basis): increases
inotropic response ([3]; both in vitro and in vivo): positive inotropic response
cytosolic calcium (Ca2+) concentration ([3]; murine heart, TRPV2 activated with probenecid): increases
cardiac function [4]: improve cardiac function
outcomes [5]: improves outcomes
agonism of TRPV2 channel [6]: potent agonist

CC(/C=C1\SC(=S)N(CC(=O)O)C1=O)=C\c1ccccc1 [Epalrestat]
plasma half-life [7]: relatively short

CCCN(CCC)S(=O)(=O)c1ccc(C(=O)[O-])cc1.[Na+] [sodium salt of probenecid]
solubility [8]: 77 mg/mL

O=C(O)Cc1nn(Cc2nc3cc(C(F)(F)F)ccc3s2)c(=O)c2ccccc12 [zopolrestat]
resting diastolic filling rates ([9]; after 1 year of treatment, either group): no change
exercise LVEF ([9]; after 1 year of zopolrestat treatment, P 0.001): increases
left ventricular stroke volume ([9]; after 1 year of zopolrestat treatment, P 0.004): increases
resting left ventricular ejection fraction (LVEF) ([9]; after 1 year of zopolrestat treatment, P 0.02): increases
cardiac output ([9]; after 1 year of zopolrestat treatment, P 0.03): increases
plasma half-life [10]: 27.5 h

O=C(O)Cc1nn(Cc2nc3cc(C(F)(F)F)ccc3s2)c(=O)c2nccnc12 [AT-001]
times shorter lived in human plasma compared to zopolrestat [11]: 7-12 times
median time of maximum concentration (Tmax) [12]: 1.75 to 3.38 h
plasma half-life [12]: 1.74 to 3.38 h
